Read-outs that look alike come from different tables or passages of the source.
Experiments:
Format in all cases: binding, sheep
[1] = test system: Antibody to Immunogen III
How it was run: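 Plates were coated with IgG from antiserum to Immunogen III, and JWH-250 standards (0–40 ng/ml) competed with hapten-HRP conjugate for 1 h at 25°C. Detection used TMB with A450. IC50 is the concentration giving half the 0 ng/ml OD on a 4-parameter fit, and cross-reactivity was taken from calibration curves using a single level of each cross-reactant.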

Antibody to Immunogen V = test system: Antibody to Immunogen V
How it was run: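 Plates coated with anti-Immunogen V IgG; RCS-8 standards (0–80 ng/ml in TBST) compete with hapten-HRP conjugate 1 h at 25°C, TMB readout at 450 nm. IC50 from 4-parameter fit as concentration at half the zero-standard OD; cross-reactivity from single-level cross-reactant versus calibration curve.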

Antibody to Immunogen VI = test system: Antibody to Immunogen VI
How it was run: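 Plates coated with IgG from anti-Immunogen VI antiserum; RCS-4 standards (0–20 ng/ml) compete with hapten-HRP conjugate for 1 h at 25°C. TMB read at 450 nm, 4-parameter fit; IC50 at half the zero-standard OD. Cross-reactivity from single-level cross-reactant solutions against calibration curves.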

[2] = Cross-reactants at 100 ng/ml, 1000ng/ml, single level of cross reactants

(+)-CP 55,940
%B/B0 [1, 2]: 92.49%
%B/B0 (Antibody to Immunogen V; [2]): 74.18%
%B/B0 (Antibody to Immunogen VI; [2]): 94.76%

(-)-11-nor-9-Carboxy-delta9-THC
%B/B0 [1]: 89.45%
%B/B0 (Antibody to Immunogen V): 89.31%
%B/B0 (Antibody to Immunogen VI): 96.32%

(-)-CP 55,940
%B/B0 [1, 2]: 90.16%
%B/B0 (Antibody to Immunogen V; [2]): 91.41%
%B/B0 (Antibody to Immunogen VI; [2]): 94.76%
